# In US8765730B2 (Hoffmann-La Roche Inc, priority 2010, dated 2014):
# Target: T1, human GPBAR1 receptor (Homo sapiens, UniProt Q8TDU6)
# T1 construct: expressed in transfected cells
# T1 sequence (Q8TDU6 1-330): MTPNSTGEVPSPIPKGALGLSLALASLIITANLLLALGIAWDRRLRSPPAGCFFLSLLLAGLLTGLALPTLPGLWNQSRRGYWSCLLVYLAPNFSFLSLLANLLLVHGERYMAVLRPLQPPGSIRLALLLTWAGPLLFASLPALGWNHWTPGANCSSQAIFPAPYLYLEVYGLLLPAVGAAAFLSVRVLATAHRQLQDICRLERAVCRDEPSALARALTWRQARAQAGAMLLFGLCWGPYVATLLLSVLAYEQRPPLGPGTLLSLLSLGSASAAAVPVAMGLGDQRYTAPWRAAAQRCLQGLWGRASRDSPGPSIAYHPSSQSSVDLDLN
# Assay: functional cAMP assay in CHO-dhfr(minus) cells expressing human GPBAR1 receptors
# Format: cell-based
# Details: functional cAMP assay, 30 min at 30° C., read-out: human EC50
# Procedure, shortened: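 Agonist cAMP read-out: stable GPBAR1 CHO-dhfr− clone, 30 min compound exposure at 30° C following 30 min IBMX (1 mM) preincubation in Krebs Ringer bicarbonate. Time-resolved energy-transfer detection gives EC50; parental CHO cells serve as counter-screen.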
row,EC50,Structure (SMILES)
1,549 nM,"O/N=C(\CC(O)(c1ccccc1)c1ccccc1)c1ccncc1 [Example 154, (E)-3-Hydroxy-3,3-diphenyl-1-pyridin-4-yl-propan-1-one oxime]"

# Same assay, conditions: human EC50, functional cAMP assay, 30 min at 30° C.
row,EC50,Structure (SMILES)
1,118 nM,"Cc1ccc(C(C/C(=N\O)c2ccc(=O)n(C)c2)c2ccc(Br)cc2)c(F)c1 (stereo not drawn) [Example 408, (E)-5-(3-(4-bromophenyl)-3-(2-fluoro-4-methylphenyl)-1-(hydroxyimino)propyl)-1-methylpyridin-2(1H)-one]"
2,140 nM,"COC(=O)CNC(=O)c1ccc(-c2ccc(C(C/C(=N\O)c3ccc(=O)n(C)c3)c3ccc(Cl)cc3C)cc2)cc1 (single isomer, unassigned; (-)) [Example 253, (−)-({4′-[1-(4-Chloro-2-methyl-phenyl)-3-[(E)-hydroxyimino]-3-(1-methyl-6-oxo-1,6-dihydro-pyridin-3-yl)-propyl]-biphenyl-4-carbonyl}-amino)-acetic acid methyl ester]"
3,612 nM,"Cc1ccccc1[C@@H](C/C(=N\O)c1ccc(=O)n(C)c1)c1ccc([C@H]2CC[C@H](C(=O)O)CC2)cc1 [Example 488, Trans-4-(4-((S,E)-3-(Hydroxyimino)-3-(1-methyl-6-oxo-1,6-dihydropyridin-3-yl)-1-o-tolylpropyl)phenyl)cyclohexanecarboxylic acid]"
4,13 nM,"Cc1cc(/C(C[C@H](c2ccc([C@H]3CC[C@@H](C(=O)O)CC3)cc2)c2ccc(Cl)cc2C)=N/O)ccn1 [Example 505, cis-4-(4-((R,E)-1-(4-chloro-2-methylphenyl)-3-(hydroxyimino)-3-(2-methylpyridin-4-yl)propyl)phenyl)cyclohexanecarboxylic acid]"
5,12 nM,"COc1cc(-c2ccc(C(C/C(=N\O)c3ccnc(C)c3)c3ccc(Cl)cc3F)cc2)ccc1C(=O)O (stereo not drawn) [Example 455, 4′-[1-(4-Chloro-2-fluoro-phenyl)-3-[(E)-hydroxyimino]-3-(2-methyl-pyridin-4-yl)-propyl]-3-methoxy-biphenyl-4-carboxylic acid]"
6,27 nM,"Cc1cc(C(CC(c2ccc(-c3ccc(C(=O)O)c(Cl)c3)cc2)c2ccccc2C)=NO)ccn1 (racemic) [Example 84, 3-Chloro-4′-[3-[hydroxyimino]-3-(2-methyl-pyridin-4-yl)-1-o-tolyl-propyl]-biphenyl-4-carboxylic acid]"
7,42 nM,"Cn1cc(/C(CC(c2ccc(Br)cc2)C2CCCCC2)=N/O)ccc1=O (stereo not drawn) [Example 178, 5-{3-(4-Bromo-phenyl)-3-cyclohexyl-1-[(E)-hydroxyimino]-propyl}-1-methyl-1H-pyridin-2-one]"
8,80 nM,"Cc1cc(/C(C[C@H](c2ccc(C(=O)N(C)CCO)cc2)c2ccccc2C)=N/O)ccn1 [Example 274, N-(2-Hydroxy-ethyl)-4-[(R)-3-[(E)-hydroxyimino]-3-(2-methyl-pyridin-4-yl)-1-o-tolyl-propyl]-N-methyl-benzamide]"
9,1350 nM,"Cn1cc(/C(CC(c2ccc(=O)n(C)c2)c2ccccc2Cl)=N/O)ccc1=O (stereo not drawn) [Example 250, (E)-5,5′-(1-(2-Chlorophenyl)-3-(hydroxyimino)propane-1,3-diyl)bis(1-methylpyridin-2(1H)-one)]"
10,698 nM,"Cc1cc(/C(=N/O)C(C)[C@H](c2ccc(Br)cc2)c2ccc(Cl)cc2C)ccn1 (stereo partly drawn) [Example 385, (3R,E)-3-(4-bromophenyl)-3-(4-chloro-2-methylphenyl)-2-methyl-1-(2-methylpyridin-4-yl)propan-1-one oxime]"
11,702 nM,"COc1cc(C(CC(c2ccc(Br)cc2)c2ccccc2C)=NO)ccn1 (racemic) [Example 109, 3-(4-Bromo-phenyl)-1-(2-methoxy-pyridin-4-yl)-3-o-tolyl-propan-1-one oxime]"
12,54 nM,"Cc1cc(F)ccc1C(C/C(=N\O)c1ccc(=O)n(C)c1)c1ccc(-c2ccc(NC(=O)CCC(=O)O)cc2)cc1 (stereo not drawn) [Example 392, N-{4′-[1-(4-Fluoro-2-methyl-phenyl)-3-[(E)-hydroxyimino]-3-(1-methyl-6-oxo-1,6-dihydro-pyridin-3-yl)-propyl]-biphenyl-4-yl}-succinamic acid]"
13,203 nM,"Cc1cc(/C(CC(c2ccccc2)c2ccccc2)=N/O)cc(F)n1 [Example 56, (E)-1-(2-Fluoro-6-methyl-pyridin-4-yl)-3,3-diphenyl-propan-1-one oxime]"
14,127 nM,"Cc1cc(/C(C[C@H](c2ccc(C3CNC3)cc2)c2ccccc2C)=N/O)ccn1 [Example 482, (R,E)-3-(4-(Azetidin-3-yl)phenyl)-1-(2-methylpyridin-4-yl)-3-o-tolylpropan-1-one oxime]"
15,66 nM,"Cc1cc(/C(CC(c2ccc(C(=O)NC(C)(C)CO)cc2)c2ccc(F)cc2F)=N/O)ccn1 (stereo not drawn) [Example 435, 4-[1-(2,4-Difluoro-phenyl)-3-[(E)-hydroxyimino]-3-(2-methyl-pyridin-4-yl)-propyl]-N-(2-hydroxy-1,1-dimethyl-ethyl)-benzamide]"
16,153 nM,"Cc1cc(C(CC(c2cccc(CCCO)c2)c2ccccc2C)=NO)ccn1 (racemic) [Example 107, 3-[3-(3-Hydroxy-propyl)-phenyl]-1-(2-methyl-pyridin-4-yl)-3-o-tolyl-propan-1-one oxime]"
17,420 nM,"CCOC(=O)c1ccc(-c2ccc([C@H](C/C(=N\O)c3ccc(=O)n(C)c3)c3ccc(Cl)cc3F)cc2)s1 (single isomer, unassigned) [Example 469, 5-{4-[(+)-1-(4-Chloro-2-fluoro-phenyl)-3-[(E)-hydroxyimino]-3-(1-methyl-6-oxo-1,6-dihydro-pyridin-3-yl)-propyl]-phenyl}-thiophene-2-carboxylic acid ethyl ester]"
18,443 nM,"Cc1ccccc1C(C/C(=N\O)c1ccc(=O)n(C)c1)c1ccc(C(=O)N(C)CCO)cc1 (stereo not drawn) [Example 209, N-(2-Hydroxy-ethyl)-4-[3-[(E)-hydroxyimino]-3-(1-methyl-6-oxo-1,6-dihydro-pyridin-3-yl)-1-o-tolyl-propyl]-N-methyl-benzamide]"
19,582 nM,"Cc1ccccc1[C@@H](C/C(=N\O)c1ccc(=O)n(C)c1)c1ccc([C@H]2CC[C@@H](C(=O)O)CC2)cc1 [Example 489, cis-4-(4-((S,E)-3-(hydroxyimino)-3-(1-methyl-6-oxo-1,6-dihydropyridin-3-yl)-1-o-tolylpropyl)phenyl)cyclohexanecarboxylic acid]"
20,18 nM,"Cc1cc(/C(C[C@@H](c2ccc(N3CCC(C(=O)O)CC3)cc2)c2ccc(F)cc2F)=N/O)ccn1 (single isomer, unassigned) [Example 428, 1-{4-[(+)-1-(2,4-Difluoro-phenyl)-3-[(E)-hydroxyimino]-3-(2-methyl-pyridin-4-yl)-propyl]-phenyl}-piperidine-4-carboxylic acid]"
21,2 nM,"Cc1cc(/C(C[C@H](c2ccc(N3CCC(C(=O)O)CC3)cc2)c2ccc(Cl)cc2C)=N/O)ccn1 [Example 284, 1-{4-[(R)-1-(4-Chloro-2-methyl-phenyl)-3-[(E)-hydroxyimino]-3-(2-methyl-pyridin-4-yl)-propyl]-phenyl}-piperidine-4-carboxylic acid]"
22,20 nM,"COC(=O)CNC(=O)c1ccc(-c2ccc(C(C/C(=N\O)c3ccc(=O)n(C)c3)c3ccc(F)cc3C)cc2)cc1 (stereo not drawn) [Example 257, ({4′-[1-(4-Fluoro-2-methyl-phenyl)-3-[(E)-hydroxyimino]-3-(1-methyl-6-oxo-1,6-dihydro-pyridin-3-yl)-propyl]-biphenyl-4-carbonyl}-amino)-acetic acid methyl ester]"
23,330 nM,"Cc1cc(Cl)ccc1C(C/C(=N\O)c1ccc(=O)n(C)c1)c1ccc(C(=O)NCCS(C)(=O)=O)cc1 (stereo not drawn) [Example 336, (E)-4-(1-(4-Chloro-2-methylphenyl)-3-(hydroxyimino)-3-(1-methyl-6-oxo-1,6-dihydropyridin-3-yl)propyl)-N-(2-(methylsulfonyl)ethyl)benzamide]"
24,4760 nM,"Cc1ccccc1C(C/C(=N\O)c1ccc(=O)n(C)c1)c1ccc(C(=O)O)cc1 (stereo not drawn) [Example 360, 4-[3-[(E)-Hydroxyimino]-3-(1-methyl-6-oxo-1,6-dihydro-pyridin-3-yl)-1-o-tolyl-propyl]-benzoic acid]"
25,711 nM,"Cc1ccccc1C(C/C(=N\O)c1ccc(=O)n(C)c1)c1ccc(C(=O)N2CCOCC2)cc1 (stereo not drawn) [Example 207, 5-{1-[(E)-Hydroxyimino]-3-[4-(morpholine-4-carbonyl)-phenyl]-3-o-tolyl-propyl}-1-methyl-1H-pyridin-2-one]"
26,55 nM,"Cc1cc(/C(C[C@H](c2ccc(N[C@H]3C[C@@H](C(=O)O)C3)cc2)c2ccccc2C)=N/O)ccn1 [Example 300, 3-{4-[(R)-3-[(E)-Hydroxyimino]-3-(2-methyl-pyridin-4-yl)-1-o-tolyl-propyl]-phenylamino}-cyclobutanecarboxylic acid]"
27,1080 nM,"CC(C)CC(CC(=NO)c1ccncc1)c1ccc(Br)cc1 (racemic) [Example 114, 3-(4-Bromo-phenyl)-5-methyl-1-pyridin-4-yl-hexan-1-one oxime]"
28,17 nM,"Cc1cnc(F)cc1C(CC(c1ccc(Br)cc1)c1ccccc1C)=NO (racemic) [Example 124, 3-(4-Bromo-phenyl)-1-(2-fluoro-5-methyl-pyridin-4-yl)-3-o-tolyl-propan-1-one oxime]"

row,Structure (SMILES),EC50
1,"Cc1cc(/C(C[C@H](c2ccc(C3=CCNCC3)cc2)c2ccccc2C)=N/O)ccn1 [Example 375, (R,E)-1-(2-Methylpyridin-4-yl)-3-(4-(1,2,3,6-tetrahydropyridin-4-yl)phenyl)-3-o-tolylpropan-1-one oxime]",75 nM
